Assay results published in patent publication US8815776B2, “Herbicidal compositions and method of use thereof” (Proactive, LLC, priority 2011, dated 2014).

Assay: Solubility of prodiamine in solvents
Type: physicochemical
Source text: The aprotic solvent is preferably a pyrrolidone such as NMP, though one or more of dimethylsulfoxide (DMSO), dimethylformamide, and gamma-Butyrolactone alone or in mixtures, including mixtures with NMP, are useful. DMSO and gamma-Butyrolactone dissolve 0.24 to 0.25 grams prodiamine per gram solvent. NMP dissolves 0.68 grams prodiamine per gram solvent. The aprotic solvent is the primary solvent in most embodiments of the EC.
There are a number of solvents that are not suitable and would be included only to change the composition.
Fatty amides, also called “fatty acid solvents” in this application, are amides formed from a fatty acid and an amine, of which many are known. Preferred are di-substituted fatty acid amides, which include as non-limiting examples N,N-dimethylcaprylamide (available from Cognis as Agnique™ KE-3658), and […] (available as Halcomid™ M8-10). These compounds can fully or partially replace aprotic solvents, and the solvating capacity approaches that of less-preferred aprotic solvents such as DMSO and gamma-Butyrolactone, that is, 0.24 to 0.25 grams prodiamine per gram solvent. A mixture of C8 and C10 fatty acid dimethylamide, (CAS 1118-92-9 and 14433-76-2) are useful.

Structure (SMILES): CCCN(CCC)c1c([N+](=O)[O-])cc(C(F)(F)F)c(N)c1[N+](=O)[O-] [prodiamine, N3,N3-di-n-propyl-2,4-dinitro-6-(trifluoromethyl)-m-phenylenediamine]
- Solubility, g prodiamine/g solvent (solvent Aromatic 150 (Aromatic Hydrocarbon)): 0.080 g prodiamine/g solvent
- Solubility, g prodiamine/g solvent (solvent Aromatic 200 (Aromatic Hydrocarbon)): 0.070 g prodiamine/g solvent
- Solubility, g prodiamine/g solvent (solvent Carbitol TM (Diethylene glycol monomethyl ether)): 0.010 g prodiamine/g solvent
- Solubility, g prodiamine/g solvent (solvent DEGEE (Diethylene glycol monoethyl ether)): 0.050 g prodiamine/g solvent
- Solubility, g prodiamine/g solvent (solvent Glycol DPM (Dipropylene glycol methyl ether)): 0.008 g prodiamine/g solvent
- Solubility, g prodiamine/g solvent (solvent Glycol Ether EB (Diethylene glycol monobutyl ether)): 0.020 g prodiamine/g solvent
- Solubility, g prodiamine/g solvent (solvent Jefsol 1555 (Proprietary Solvent (Carbonate))): 0.004 g prodiamine/g solvent
- prodiamine dissolved per gram solvent (solvent NMP): 0.68 grams prodiamine per gram solvent
